The source of these data is patent publication EP4692061A1, “LOW-MOLECULAR-WEIGHT COMPOUND HAVING CEREBLON-BINDING ACTIVITY, AND USE THEREOF” (Aevis Bio, Inc., priority 2023, dated 2024).

Molecules are shown by their SMILES. pIC50: −log10 of the molar value.

One experiment addresses cereblon (CRBN) (Homo sapiens, UniProt Q96SW2). Kind of experiment: In vitro CRBN binding assay (AlphaScreen, competitive inhibition of the PROTAC assay).
Settings: not given
Background: In Alpha technology, singlet oxygen from a donor bead excites a nearby acceptor bead.
A word on the pIC50: it is the negative decadic logarithm of the IC50, by convention in mol/L. `Cc1ccc(NC(=O)Nc2cccc(S(=O)(=O)Nc3cccc(C4CCC(=O)NC4=O)c3)c2)cc1Cl` (stereo not drawn) [AEV40181] gave a pIC50 of 6.49.

The experiment is the same for the next values; noted with them: Table 1; AlphaScreen, PROTAC Optimization Kit for BET Bromodomain-Cereblon Binding; read-out: Alpha IC50.
On to `O=C1CCC(c2cccc(NC(=O)c3ccc(Cl)c(Cl)c3)c2)C(=O)N1` (stereo not drawn) [AEV40137], for which the pIC50 was 5.65.

On to `O=C1CCC(c2cccc(NC(=O)c3c(Cl)cc(Cl)cc3Cl)c2)C(=O)N1` (stereo not drawn) [AEV40138], for which the pIC50 was 6.10. As for `O=C1CCC(c2cccc(NC(=O)c3ccc(Cl)cc3)c2)C(=O)N1` (stereo not drawn) [AEV40139], the pIC50 is 5.67. Turning to `O=C1CCC(c2cccc(NC(=O)c3ccc(F)cc3)c2)C(=O)N1` (stereo not drawn) [AEV40140], the negative-log IC50 (pIC50) was 5.74.

As for `Cc1ccc(C(=O)Nc2cccc(C3CCC(=O)NC3=O)c2)cc1` (stereo not drawn) [AEV40141], the pIC50 was 5.68.

In the case of `O=C1CCC(c2cccc(NS(=O)(=O)c3cccc(NC(=O)c4ccc(Cl)c(Cl)c4)c3)c2)C(=O)N1` (stereo not drawn) [AEV40142], the pIC50 was 6.01.

`O=C1CCC(c2cccc(NS(=O)(=O)c3cccc(NC(=O)c4ccccc4)c3)c2)C(=O)N1` (stereo not drawn) [AEV40143]: the negative-log IC50 (pIC50) is 6.21. Turning to `O=C1CCC(c2cccc(NC(=O)c3ccccc3Cl)c2)C(=O)N1` (stereo not drawn) [AEV40144], the negative-log IC50 (pIC50) was 6.02. Regarding `O=C1CCC(c2cccc(NC(=O)c3ccccc3F)c2)C(=O)N1` (stereo not drawn) [AEV40145], the pIC50 was 5.99. Regarding `Cc1ccccc1C(=O)Nc1cccc(C2CCC(=O)NC2=O)c1` (stereo not drawn) [AEV40146], the negative-log IC50 (pIC50) was 5.96. Consider `Cc1cc(Cl)ccc1C(=O)Nc1cccc(C2CCC(=O)NC2=O)c1` (stereo not drawn) [AEV40147], for which the pIC50 is 5.86. For the compound `COc1cc(Cl)ccc1C(=O)Nc1cccc(C2CCC(=O)NC2=O)c1` (stereo not drawn) [AEV40148], the pIC50 is 5.95. For the compound `O=C1CCC(c2cccc(NS(=O)(=O)c3cccc(NC(=O)c4c(F)cccc4C(F)(F)F)c3)c2)C(=O)N1` (stereo not drawn) [AEV40149], the pIC50 was 5.82. As for `O=C1CCC(c2cccc(NS(=O)(=O)c3cccc(NC(=O)c4ccc(Cl)cc4Cl)c3)c2)C(=O)N1` (stereo not drawn) [AEV40150], the pIC50 was 5.74. Turning to `COc1ccccc1C(=O)Nc1cccc(S(=O)(=O)Nc2cccc(C3CCC(=O)NC3=O)c2)c1` (stereo not drawn) [AEV40151], the pIC50 is 6.47.

On to `O=C1CCC(c2cccc(NS(=O)(=O)c3cccc(NC(=O)c4ccccc4C(F)(F)F)c3)c2)C(=O)N1` (stereo not drawn) [AEV40152], for which the pIC50 was 6.14.

For `O=C1CCC(c2cccc(NS(=O)(=O)c3cccc(NC(=O)c4cc(F)c(F)cc4F)c3)c2)C(=O)N1` (stereo not drawn) [AEV40153], the negative logarithm of the IC50 (pIC50) was 6.10. In the case of `O=C1CCC(c2cccc(NS(=O)(=O)c3cccc(NC(=O)c4ccccc4Br)c3)c2)C(=O)N1` (stereo not drawn) [AEV40155], the pIC50 is 6.02. With `O=C1CCC(c2cccc(NS(=O)(=O)c3cccc(NC(=O)c4c(F)cccc4F)c3)c2)C(=O)N1` (stereo not drawn) [AEV40156], the pIC50 was 5.90.

Turning to `O=C1CCC(c2cccc(NS(=O)(=O)c3cccc(NC(=O)c4cccc(Br)c4)c3)c2)C(=O)N1` (stereo not drawn) [AEV40157], the pIC50 is 6.14.

Regarding `O=C1CCC(c2cccc(NS(=O)(=O)c3cccc(NC(=O)c4cc(F)cc(F)c4F)c3)c2)C(=O)N1` (stereo not drawn) [AEV40158], the negative logarithm of the IC50 (pIC50) was 6.15.

As for `O=C1CCC(c2cccc(NS(=O)(=O)c3cccc(NC(=O)c4c(Cl)ccc(Cl)c4F)c3)c2)C(=O)N1` (stereo not drawn) [AEV40159], the pIC50 is 5.83. As to `CCOC(=O)/C=C/c1cc(C)ccc1C1CCC(=O)NC1=O` (stereo not drawn) [AEV40160], the pIC50 was 5.53. Turning to `O=C1CCC(c2cccc(NC(=O)c3ccc(-c4ccccc4)cc3)c2)C(=O)N1` (stereo not drawn) [AEV40161], the negative logarithm of the IC50 (pIC50) was less than 5.00. As to `O=C1CCC(c2cccc(NC(=O)c3cccc(-c4ccccc4)c3)c2)C(=O)N1` (stereo not drawn) [AEV40162], the negative-log IC50 (pIC50) was 5.67. Regarding `O=C1CCC(c2cccc(NS(=O)(=O)c3cccc(NCc4cc5ccccc5[nH]4)c3)c2)C(=O)N1` (stereo not drawn) [AEV40163], the pIC50 was 5.84. Same read-out and setting: the value for `O=C1CCC(c2cccc(NC(=O)c3ccc(F)cc3F)c2)C(=O)N1` (stereo not drawn) [AEV40164] was 5.78; that for `Cc1ccc(C(=O)Nc2cccc(C3CCC(=O)NC3=O)c2)c(C)c1` (stereo not drawn) [AEV40165] was 6.03; that for `O=C1CCC(c2cccc(NC(=O)c3ccc(F)c(F)c3)c2)C(=O)N1` (stereo not drawn) [AEV40166] was 5.60.

Regarding `O=C1CCC(c2cccc(NS(=O)(=O)c3cccc(NCc4ccc5[nH]ccc5c4)c3)c2)C(=O)N1` (stereo not drawn) [AEV40171], the negative logarithm of the IC50 (pIC50) is 5.89. Regarding `O=C1CCC(c2cccc(NS(=O)(=O)c3cccc(NCc4ccc5ocnc5c4)c3)c2)C(=O)N1` (stereo not drawn) [AEV40172], the pIC50 was 6.68. Same read-out and setting: the value for `O=C1CCC(c2cccc(NS(=O)(=O)c3cccc(NCc4c[nH]c5ccc(Cl)cc45)c3)c2)C(=O)N1` (stereo not drawn) [AEV40173] was 6.40; that for `COc1ccc(C(=O)Nc2cccc(C3CCC(=O)NC3=O)c2)c(Cl)c1` (stereo not drawn) [AEV40176] was 5.91. In the case of `O=C1CCC(c2cccc(NC(=O)c3cc(Cl)ccc3Cl)c2)C(=O)N1` (stereo not drawn) [AEV40178], the negative logarithm of the IC50 (pIC50) was 6.04. Same read-out and setting: the value for `O=C1CCC(c2cccc(NC(=O)c3ccccc3Br)c2)C(=O)N1` (stereo not drawn) [AEV40179] was 6.19; that for `O=C1CCC(c2cccc(NC(=O)c3ccccc3C(F)(F)F)c2)C(=O)N1` (stereo not drawn) [AEV40180] was 5.95. Take `O=C1CCC(c2cccc(NC(=O)c3sccc3Cl)c2)C(=O)N1` (stereo not drawn) [AEV40182]: the pIC50 is 6.06. The same measure, in the same setting: the value for `O=C1CCC(c2cccc(NC(=O)c3n[nH]cc3Cl)c2)C(=O)N1` (stereo not drawn) [AEV40183] was 5.98. `COC(=O)CCc1cccc(Nc2cccc(C3CCC(=O)NC3=O)c2)c1` (stereo not drawn) [AEV40184]: the pIC50 is 5.85. On the same count and under the same terms, the value for `Cc1ccc(NC(=O)CCc2cccc(Nc3cccc(C4CCC(=O)NC4=O)c3)c2)cc1Cl` (stereo not drawn) [AEV40185] was 5.36; that for `CC(C)(C)OC(=O)NCc1cccc(Nc2cccc(C3CCC(=O)NC3=O)c2)c1` (stereo not drawn) [AEV40186] was 5.58. Still for that read-out and setting: the value for `O=C1CCC(c2cccc(NC(=O)c3ccc4ccccc4n3)c2)C(=O)N1` (stereo not drawn) [AEV40187] was 6.08.

For the compound `Cn1cc(Cl)c(C(=O)Nc2cccc(C3CCC(=O)NC3=O)c2)n1` (stereo not drawn) [AEV40188], the pIC50 was 6.00.

As to `O=C1CCC(c2cccc(NC(=O)c3ccsc3Cl)c2)C(=O)N1` (stereo not drawn) [AEV40189], the pIC50 is 5.79. Consider `O=C1CCC(c2cccc(NC(=O)c3cc4ccccc4[nH]3)c2)C(=O)N1` (stereo not drawn) [AEV40190], for which the negative logarithm of the IC50 (pIC50) is 5.67. `O=C1CCC(c2cccc(NC(=O)c3cccc4[nH]ccc34)c2)C(=O)N1` (stereo not drawn) [AEV40191]: the negative-log IC50 (pIC50) is 6.32. Take `Cc1ccc(NC(=O)NCc2cccc(Nc3cccc(C4CCC(=O)NC4=O)c3)c2)cc1Cl` (stereo not drawn) [AEV40192]: the pIC50 is 5.49. As for `CCCOc1ccc(C(=O)Nc2cccc(S(=O)(=O)Nc3cccc(C4CCC(=O)NC4=O)c3)c2)cc1` (stereo not drawn) [AEV40193], the pIC50 is 6.07. Still for that read-out and setting: the value for `O=C1CCC(c2cccc(NC(=O)c3c[nH]c4ccccc34)c2)C(=O)N1` (stereo not drawn) [AEV40194] was 6.07. `CN1CCN(c2ccc(NC(=O)CCc3cccc(Nc4cccc(C5CCC(=O)NC5=O)c4)c3)cc2)CC1` (stereo not drawn) [AEV40196]: the negative logarithm of the IC50 (pIC50) was 5.91. With `CCCCCCOc1ccc(NC(=O)CCc2cccc(Nc3cccc(C4CCC(=O)NC4=O)c3)c2)cc1` (stereo not drawn) [AEV40199], the pIC50 was 5.46. Turning to `CC(=O)N1CCC(NC(=O)CCc2cccc(Nc3cccc(C4CCC(=O)NC4=O)c3)c2)CC1` (stereo not drawn) [AEV40200], the pIC50 was 6.02. For the compound `Nc1cc(-c2ccccc2)n(C(=O)CCc2cccc(Nc3cccc(C4CCC(=O)NC4=O)c3)c2)n1` (stereo not drawn) [AEV40201], the pIC50 was 5.91. Still for that read-out and setting: the value for `Nc1nn(C(=O)CCc2cccc(Nc3cccc(C4CCC(=O)NC4=O)c3)c2)c2ccccc12` (stereo not drawn) [AEV40202] was 6.10; that for `O=C1CCC(c2ccc3ncoc3c2)C(=O)N1` (stereo not drawn) [AEV40203] was 5.74; that for `O=C1CCC(c2cccc(Nc3cccc(CCC(=O)N4CCS(=O)(=O)CC4)c3)c2)C(=O)N1` (stereo not drawn) [AEV40205] was 6.08. In the case of `Nc1cccc(N2CCOc3cc(C4CCC(=O)NC4=O)ccc3C2=O)c1` (stereo not drawn) [AEV40206], the negative-log IC50 (pIC50) is 5.43. Turning to `O=C1CCC(c2ccc3oc(N4CCOCC4)nc3c2)C(=O)N1` (stereo not drawn) [AEV40207], the pIC50 is 5.34. As to `O=C1CCC(c2ccc3oc(N4CCCCC4)nc3c2)C(=O)N1` (stereo not drawn) [AEV40208], the negative logarithm of the IC50 (pIC50) is 5.45. For `O=C1CCC(c2cccc(Nc3cccc(CCC(=O)Nc4cc(-c5ccccc5)[nH]n4)c3)c2)C(=O)N1` (stereo not drawn) [AEV40209], the pIC50 was 6.04. In the case of `COC(=O)C1CC2(CC(NC(=O)CCc3cccc(Nc4cccc(C5CCC(=O)NC5=O)c4)c3)C2)C1` (stereo not drawn) [AEV40210], the negative-log IC50 (pIC50) is 5.91. As for `O=C1CCC(c2cccc(Nc3cccc(CCC(=O)NC4CC5(C4)CC(C(=O)O)C5)c3)c2)C(=O)N1` (stereo not drawn) [AEV40211], the pIC50 was less than 4.00.

As for `CC1(C(=O)Nc2cccc(N3CCOc4cc(C5CCC(=O)NC5=O)ccc4C3=O)c2)CC1` (stereo not drawn) [AEV40212], the negative-log IC50 (pIC50) is 5.64. Still for that read-out and setting: the value for `CC1CCC(C(=O)Nc2cccc(N3CCOc4cc(C5CCC(=O)NC5=O)ccc4C3=O)c2)CC1` (stereo not drawn) [AEV40213] was 5.68; that for `CCCCc1ccc(C(=O)Nc2cccc(N3CCOc4cc(C5CCC(=O)NC5=O)ccc4C3=O)c2)cc1` (stereo not drawn) [AEV40214] was 6.09; that for `O=C1CCC(c2ccc3c(c2)OCCN(c2cccc(NC(=O)C4(C(=O)Nc5ccc(F)cc5)CC4)c2)C3=O)C(=O)N1` (stereo not drawn) [AEV40215] was 5.67. Take `O=C1CCC(c2ccc3c(c2)OCCN(c2cccc(NC(=O)C4CCOCC4)c2)C3=O)C(=O)N1` (stereo not drawn) [AEV40216]: the pIC50 is 5.60. Take `O=C1CCC(c2ccc3c(c2)OCCN(c2cccc(NC(=O)c4ccc(Cl)cc4Cl)c2)C3=O)C(=O)N1` (stereo not drawn) [AEV40217]: the negative-log IC50 (pIC50) is 5.93. Still for that read-out and setting: the value for `O=C1CCC(c2cccc(NC(=O)c3ccccc3-c3ccccc3)c2)C(=O)N1` (stereo not drawn) [AEV40218] was 6.36; that for `O=C1CCC(c2cccc(Nc3cccc(NC(=O)C4(C(=O)Nc5ccc(F)cc5)CC4)c3)c2)C(=O)N1` (stereo not drawn) [AEV40219] was 5.66; that for `O=C1CCC(c2cccc(Nc3cccc(NC(=O)c4ccc(Cl)cc4Cl)c3)c2)C(=O)N1` (stereo not drawn) [AEV40220] was 5.68. As to `CCCCc1ccc(C(=O)Nc2cccc(Nc3cccc(C4CCC(=O)NC4=O)c3)c2)cc1` (stereo not drawn) [AEV40221], the negative-log IC50 (pIC50) is 5.78. The same measure, in the same setting: the value for `O=C1CCC(c2cccc(NC(=O)c3cc(-c4ccccc4)ccc3Cl)c2)C(=O)N1` (stereo not drawn) [AEV40222] was 5.76; that for `O=C1CCC(c2cccc(NC(=O)c3cc(Br)ccc3Cl)c2)C(=O)N1` (stereo not drawn) [AEV40223] was 5.86.
